Series [1] deals with T1, catalytic domain of neutrophil collagenase (Homo sapiens, UniProt P22894).
T1 construct: enzymatic activity of the catalytic domains of human stomelysine and of neutrophil collagenase; made in house
Put plainly: Enzyme inhibition, catalytic domain of neutrophil collagenase (fluorogenic substrate). The series is classed as biochemical. To be noted: read-out: Neutrophil collagenase IC 50. The method, then: (§1) Preparation and determination of the enzymatic activity of the catalytic domains of human stomelysine and of neutrophil collagenase.
(§2) The two enzymes were prepared according to Ye et al., (Biochemistry 31 (1992) 11231-5). To measure the enzyme activity or enzyme inhibitor action, 70 μl of buffer solution and 10 μl of enzyme solution are incubated for 15 minutes with 10 μl of a 10% strength (v/v) aqueous dimethyl sulfoxide solution, which optionally contains the enzyme inhibitor. After addition of 10 μl of a 10% strength (v/v) aqueous dimethyl sulfoxide solution which contains 1 mmol/l of the substrate, the enzyme reaction is monitored by fluorescence spectroscopy (328 nm (ex)/393 nm(em)). The enzyme activity is shown as extinction increase/minute. […] The buffer solution contains 0.05% of Brij (Sigma, Deisenhofen, Germany) and also 0.1 mol/l of tris/HCl, 0.1 mol/l of NaCl, 0.01 mol/l of CaCl2 (pH=7.5) for the determination of the hydroxamic acids up to and including Example 33, or, for the determination of the carboxylic acids from Example 34, 0.1 mol/l of piperazine-N,N′-bis[2-ethanesulfonic acid] pH=6.5.
(§3) The enzyme solution contains 5 μg/ml of one of the enzyme domains prepared according to Ye et al. The substrate solution contains 1 mmol/l of the fluorogenic substrate (7-methoxycoumarin-4-yl)acetyl-Pro-Leu-Gly-Leu-3-(2′,4′-dinitrophenyl)-L-2,3-diaminopropionyl-Ala-Arg-NH2 (Bachem, Heidelberg, Germany).

For series [2], the target named is T2, catalytic domain of human stromelysine (Homo sapiens, UniProt P08254).
T2 construct: enzymatic activity of the catalytic domains of human stomelysine and of neutrophil collagenase; made in house
The series is described as follows: Enzyme inhibition, catalytic domain of human stromelysine (fluorogenic substrate). To be noted: read-out: Stromelysine IC 50. It counts as biochemical. The method, then:
as §1, §2, §3

Series [3] has as its target T3, catalytic domain of stromelysine-1 (Homo sapiens, UniProt P08254).
T3 construct: enzymatic activity of the catalytic domains of human stomelysine and of neutrophil collagenase; made in house
Put plainly: Proteoglycan degradation assay (bovine aggrecan, ELISA with antibody 5-D-4). The series is classed as biochemical. The following applies: bovine nasal proteoglycane, 60 ng stromelysine-1 catalytic domain, MES pH 6.0, RT 3 h. On the procedure: In the proteoglycan degradation assay, the extent of the degradation of native bovine aggrecan, the most important proteoglycan of the cartilage, is measured. The released proteoglycan fragments are determined using the monoclonal antibody 5-D-4 which recognizes the keratan sulfate side-chains which are located at the carboxy terminal of the G2 domain of aggrecan. Thus, the assay detects primarily pathologically important degradations which take place in the interglobular domain of aggrecan.
After addition of compounds of the formula I and the enzyme in the form of the catalytic domain of stromelysine-1, the amount of hyaluronic acid-bound aggrecan which remains after degradation is measured. The more aggrecan is detected, the lower the residual activity of the enzyme.
Description of the Test Protocol:
Wells of 96 well microtiter plates (Nunc, Maxisorp) each containing 100 μl of hyaluronic acid solution (25 μg/ml of hyaluronic acid (Sigma) in PBS) are incubated at room temperature (RT) for 12 h. The hyaluronic acid solution is removed by suction and the remaining free protein binding sites of the wells are saturated with in each case […] of a 5% strength solution of bovine serum albumin (BSA), 0.05% of Tween20 in PBS at RT for 1 h. The wells are subsequently covered with proteoglycane by incubating the wells with 100 μl each of a solution of bovine nasal proteoglycane (ICI) (200 μg/ml in 1×PBS, 5 mg/ml of BSA, 0.05% of Tween20) at RT for 1 h. The wells are washed twice with 1×PBS, 0.1% Tween20 to remove the free proteoglycanes. Subsequently, for the actual assay, 60 ng of purified catalytic domain of Stromelysine-1 (for the recombinant expression and purification, see Ye et al. (1992)) plus corresponding concentrations of the inhibitor to be tested in 100 μl of degradation buffer (100 mM MES pH 6.0, 100 mM NaCl, 10 mM CaCl2, 0.05% of Brij) are pipetted into the wells and incubated at RT for 3 h. The wells are washed twice with 1×PBS, 0.1% of Tween20 and then incubated with 100 μl of a solution of the detection antibody (monoclonal antibody done 5-D-4 (ICI), immunoreactive with the keratan sulfate side-chains of the proteoglycane, dilution 1:1000 in 1×PBS, 5 mg/ml BSA, 0.05% Tween20). The wells are washed twice with 1×PBS, 0.1% of Tween20, after which the immune reaction of the bound detection antibodies is carried out using 100 μl per well of an antibody solution for detection (goat anti Maus IgG, labeled with peroxidase (Dianova), diluted 1:1000 in 1×PBS, 5 mg/ml of BSA, 0.05% of Tween20) at RT for 1 h. The wells are again washed twice (as above), and the color reaction is then initiated using 100 μl each of 2 mg/ml of ABTS, activated with H2O2. The reaction products are measured in an ELISA reader at a wavelength of […].

The mark [4] stands for this setting: hydroxamic acids up to and including Example 33, tris/HCl buffer pH=7.5.
[5] abbreviates: carboxylic acids from Example 34, piperazine-N,N'-bis[2-ethanesulfonic acid] buffer pH=6.5.

Structures are written as SMILES. Where a name gives a salt, the structure may show the parent alone. Read-outs that look alike come from different tables or passages of the source.

T1 sequence (P22894 100-262 limits assumed): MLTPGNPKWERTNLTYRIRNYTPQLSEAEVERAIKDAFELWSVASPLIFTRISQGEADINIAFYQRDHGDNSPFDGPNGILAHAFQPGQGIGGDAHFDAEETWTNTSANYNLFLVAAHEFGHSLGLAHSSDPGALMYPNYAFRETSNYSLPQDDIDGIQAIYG
T3 sequence (P08254 100-272 limits assumed): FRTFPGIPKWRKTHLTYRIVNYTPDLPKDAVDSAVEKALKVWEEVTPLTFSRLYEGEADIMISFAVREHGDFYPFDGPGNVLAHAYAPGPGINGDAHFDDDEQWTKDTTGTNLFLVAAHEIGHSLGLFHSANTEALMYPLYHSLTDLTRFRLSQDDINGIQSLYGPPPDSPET
T2 sequence (P08254 100-272 limits assumed): as above

Regarding `O=C(Nc1ccc(S(=O)(=O)N2Cc3ccccc3C[C@@H]2C(=O)NO)cc1)OCc1ccccc1` [Example 9], the IC50 in series [1] (setting [4]) was 800 nM; in series [2] (setting [4]) it was 400 nM; in series [3], 1600 nM.
On the same counts, the results for `CCOC(=O)Oc1ccc2c(c1)CN(S(=O)(=O)c1ccc(OC)cc1)[C@@H](C(=O)NO)C2` [Example 21] are 2 nM, 20 nM and 65 nM.
The matching figures for `CN(C)c1ccc(Oc2ccc(S(=O)(=O)N3Cc4ccccc4C[C@@H]3C(=O)NO)cc2)cc1` [Example 14]: 2 nM, 30 nM and 6.7 nM.
The matching figures for `O=C(NO)C1Cc2ccccc2CN1S(=O)(=O)c1ccc(-c2ccccc2)cc1` (stereo not drawn) [Example 2]: 0.2 nM, 20 nM and 85 nM.
In the case of `O=C(c1ccccc1)c1ccc(S(=O)(=O)N2Cc3ccccc3C[C@@H]2C(=O)NO)cc1` [Example 18], the IC50 was 3 nM in series [1] (setting [4]), 30 nM in series [2] (setting [4]) and 41 nM in series [3].
One may read the melting point as the temperature of the solid-liquid transition. `O=C(O)[C@H]1Cc2c([nH]c3ccccc23)CN1S(=O)(=O)c1ccc(Oc2ccccc2)cc1` [Example 57]: the melting point stood at 115 °C. Further, in series [1] (setting [5]), the IC50 stood at 100 nM. In addition, the IC50 in series [2] (setting [5]) amounted to 2000 nM.
In the case of `O=C(NO)[C@H]1Cc2ccccc2CN1S(=O)(=O)c1ccc(Oc2ccccc2)cc1` [Example 13c, R-2-(4-phenoxybenzenesulfonyl)-1,2,3,4-tetrahydroisoquinoline-3-hydroxamic acid], the IC50 in series [1] (setting [4]) amounted to 2 nM; in series [2] (setting [4]), 20 nM; in series [3], 51 nM.
The matching figures for `COc1ccc(S(=O)(=O)N2Cc3nc[nH]c3C[C@@H]2C(=O)NO)cc1` [Example 29, R-5-(4-methoxybenzenesulfonyl)-4,5,6,7-tetrahydro-1H-imidazo-(4,5-c)-pyridine-6-hydroxamic acid hydrochloride]: 4 nM, 20 nM and 25 nM.

(Values after US6815440B2, “Cyclic and heterocyclic N-substituted α-iminohydroxamic and -carboxylic acids” (Aventis Pharma Deutschland GmbH, priority 1995, dated 2004).)
